Measured values taken from ChEMBL document CHEMBL5335846, “Uncovering the Power of HSCCC: Separation of Diastereomeric and Regioisomeric Styrylpyrones from the Stem Bark of Goniothalamus leiocarpus” (J Nat Prod, 2024).
The source made the active and inactive calls. The rule behind the calls is not given here.

Experiments:
[1] = Cytotoxicity against human LM3 cells assessed as inhibition of cell growth incubated for 24 hrs by MTT assay; format: functional, cell-based; settings: LM3, 24 h
MHCC97H = experiment: Cytotoxicity against human MHCC97H cells assessed as inhibition of cell growth incubated for 24 hrs by MTT assay; format: functional, cell-based
HepG2 = experiment: Cytotoxicity against human HepG2 cells assessed as inhibition of cell growth incubated for 24 hrs by MTT assay; format: functional, cell-based; settings: HepG2, 24 h
[2] = Cytotoxicity against HEK293T cells assessed as inhibition of cell growth incubated for 24 hrs by MTT assay; format: toxicity, cell-based, HEK-293T; settings: human
Staphylococcus aureus [3] = experiment: Antibacterial activity against Staphylococcus aureus SA1199B assessed as inhibition of microbial growth; format: functional
Staphylococcus aureus [4] = experiment: Antibacterial activity against Staphylococcus aureus RN4220 assessed as inhibition of microbial growth; format: functional
Staphylococcus aureus [5] = experiment: Antibacterial activity against Staphylococcus aureus XU212 assessed as inhibition of microbial growth; format: functional
Staphylococcus aureus [6] = experiment: Synergistic antibacterial activity against Staphylococcus aureus SA1199B assessed as inhibition of microbial growth in presence of norfloxacin; format: functional
Staphylococcus aureus [7] = experiment: Synergistic antibacterial activity against Staphylococcus aureus RN4220 assessed as inhibition of microbial growth in presence of streptomycin; format: functional
Staphylococcus aureus [8] = experiment: Synergistic antibacterial activity against Staphylococcus aureus XU212 assessed as inhibition of microbial growth in presence of tetracycline; format: functional
Staphylococcus aureus [9] = experiment: Synergistic antibacterial activity against Staphylococcus aureus SA1199B assessed as norfloxacin MIC; format: functional
Staphylococcus aureus [10] = experiment: Synergistic antibacterial activity against Staphylococcus aureus […] assessed as streptomycin MIC; format: functional
Staphylococcus aureus [11] = experiment: Synergistic antibacterial activity against Staphylococcus aureus XU212 assessed as tetracyclin MIC; format: functional
Staphylococcus aureus [12] = experiment: Synergistic antibacterial activity against Staphylococcus aureus SA1199B assessed as fractional inhibitory concentration index in presence of norfloxacin; format: functional
Staphylococcus aureus [13] = experiment: Synergistic antibacterial activity against Staphylococcus aureus RN4220 assessed as fractional inhibitory concentration index in presence of streptomycin; format: functional
Staphylococcus aureus [14] = experiment: Additive antibacterial activity against Staphylococcus aureus XU212 assessed as fractional inhibitory concentration index in presence of tetracycline; format: functional
Staphylococcus aureus [15] = experiment: Potency index, ratio of test compound MIC to norfloxacin MIC for antibacterial activity against fluoroquinolone-resistant Staphylococcus aureus SA1199B assessed as inhibition of microbial growth; format: functional
Staphylococcus aureus [16] = experiment: Antibacterial activity against fluoroquinolone-resistant Staphylococcus aureus SA1199B assessed as inhibition of microbial growth; format: functional
[17] = target: T1, Quinolone resistance protein NorA (Staphylococcus aureus) (UniProt P0A0J7); experiment: Inhibition of NorA efflux pump in norfloxacin-resisitant Staphylococcus aureus SA1199B overexpressing NorA gene assessed as reduction in EtBr efflux inhibition at 25 uM incubated for 20 mins by fluorometric assay
T1 sequence (whole entry): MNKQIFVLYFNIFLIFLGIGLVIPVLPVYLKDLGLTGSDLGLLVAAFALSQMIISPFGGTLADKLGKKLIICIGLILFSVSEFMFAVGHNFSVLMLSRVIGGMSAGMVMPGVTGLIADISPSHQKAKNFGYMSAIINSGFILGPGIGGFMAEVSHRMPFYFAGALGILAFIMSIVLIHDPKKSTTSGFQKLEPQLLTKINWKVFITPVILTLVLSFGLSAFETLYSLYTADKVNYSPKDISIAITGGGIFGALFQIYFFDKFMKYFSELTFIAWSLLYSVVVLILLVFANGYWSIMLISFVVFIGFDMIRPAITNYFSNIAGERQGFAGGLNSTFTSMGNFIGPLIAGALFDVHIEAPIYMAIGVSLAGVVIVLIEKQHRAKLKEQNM

COLO 205 = experiment: Cytotoxicity against human COLO 205 cells assessed as inhibition of cell growth incubated for 24 hrs by MTT assay; format: functional, cell-based; settings: COLO 205, 24 h
LS-513 = experiment: Cytotoxicity against human LS-513 cells assessed as inhibition of cell growth incubated for 24 hrs by MTT assay; format: functional, cell-based; settings: LS-513, 24 h
SW-620 = experiment: Cytotoxicity against human SW620 cells assessed as inhibition of cell growth incubated for 24 hrs by MTT assay; format: functional, cell-based; settings: SW-620, 24 h
Staphylococcus aureus [18] = experiment: Additive antibacterial activity against Staphylococcus aureus RN4220 assessed as fractional inhibitory concentration index in presence of streptomycin; format: functional

| SMILES | IC50 [1] | IC50 (MHCC97H) | IC50 (HepG2) | IC50 at 24 h [2] | MIC (Staphylococcus aureus [3]) | MIC (Staphylococcus aureus [6]) | MIC (Staphylococcus aureus [9]) | fractional inhibitory concentration index (FICI) (Staphylococcus aureus [12]) | Ratio (Staphylococcus aureus [15]) | inhibition [17] | other results |
| --- | --- | --- | --- | --- | --- | --- | --- | --- | --- | --- | --- |
| O=C1C=CC[C@@H]([C@@H](O)[C@@H](c2ccccc2)c2c(O)cc3c(c2O)C(=O)C[C@@H](c2ccccc2)O3)O1 | 30 µM | 63 µM | 63 µM | 90 µM | > 512 µg/mL | 8 µg/mL | 16 µg/mL | 0.14 | 8 | Active | MIC (Staphylococcus aureus [4]): 64 µg/mL; MIC (Staphylococcus aureus [5]): > 512 µg/mL; MIC (Staphylococcus aureus [7]): 8 µg/mL; MIC (Staphylococcus aureus [8]): 64 µg/mL; MIC (Staphylococcus aureus [10]): 8 µg/mL; MIC (Staphylococcus aureus [11]): 128 µg/mL; fractional inhibitory concentration index (FICI) (Staphylococcus aureus [13]): 0.37; fractional inhibitory concentration index (FICI) (Staphylococcus aureus [14]): 0.62; MIC (Staphylococcus aureus [16]): 16 µg/mL |
| O=C1C=CC[C@H]([C@@H](O)[C@@H](c2ccccc2)c2c(O)cc(O)c3c2O[C@H](c2ccccc2)CC3=O)O1 | 82 µM | > 100 µM | 82 µM | > 100 µM | > 512 µg/mL | 64 µg/mL | 32 µg/mL | 0.37 | – | – | – |
| O=C1C=CC[C@H]([C@@H](O)[C@H](c2ccccc2)c2c(O)cc(O)c3c2O[C@H](c2ccccc2)CC3=O)O1 | > 100 µM | > 100 µM | > 100 µM | > 100 µM | 128 µg/mL | 16 µg/mL | 32 µg/mL | 0.37 | 4 | Active | – |
| CN(C)[C@@H]1C(O)=C(C(N)=O)C(=O)[C@@]2(O)C(O)=C3C(=O)c4c(O)cccc4[C@@](C)(O)[C@H]3C[C@@H]12 [TETRACYCLINE] | – | – | – | – | – | – | – | – | – | – | MIC (Staphylococcus aureus [5]): 128 µg/mL |
| O=C1C=CC[C@@H]([C@H](O)[C@@H](c2ccccc2)c2c(O)cc(O)c3c2O[C@H](c2ccccc2)CC3=O)O1 | > 100 µM | > 100 µM | > 100 µM | > 100 µM | 256 µg/mL | 16 µg/mL | 32 µg/mL | 0.31 | 4 | Active | IC50 (COLO 205): 12 µM; IC50 (LS-513): 2400 nM; IC50 (SW-620): 3.9 µM; MIC (Staphylococcus aureus [4]): 64 µg/mL; MIC (Staphylococcus aureus [5]): 512 µg/mL; MIC (Staphylococcus aureus [7]): 16 µg/mL; MIC (Staphylococcus aureus [8]): 64 µg/mL; MIC (Staphylococcus aureus [10]): 16 µg/mL; MIC (Staphylococcus aureus [11]): 64 µg/mL; fractional inhibitory concentration index (FICI) (Staphylococcus aureus [18]): 0.5; fractional inhibitory concentration index (FICI) (Staphylococcus aureus [14]): 0.62 |
| CCn1cc(C(=O)O)c(=O)c2cc(F)c(N3CCNCC3)cc21 [NORFLOXACIN] | – | – | – | – | 128 µg/mL | – | – | – | – | – | – |
| O=C1C=CC[C@H]([C@@H](O)[C@H](Oc2c(O)cc3c(c2O)C(=O)C[C@@H](c2ccccc2)O3)c2ccccc2)O1 | > 100 µM | > 100 µM | > 100 µM | > 100 µM | > 128 µg/mL | 32 µg/mL | 16 µg/mL | 0.25 | 8 | – | MIC (Staphylococcus aureus [16]): 16 µg/mL |
| O=C1C=CC[C@@H]([C@@H](O)[C@H](Oc2c(O)cc3c(c2O)C(=O)C[C@@H](c2ccccc2)O3)c2ccccc2)O1 | 21 µM | 41 µM | 66 µM | > 100 µM | > 128 µg/mL | 16 µg/mL | 16 µg/mL | 0.18 | 8 | – | MIC (Staphylococcus aureus [16]): 16 µg/mL |
| N#CC(C#N)=NNc1cccc(Cl)c1 | – | – | – | – | – | – | – | – | – | Active | – |
| O=C1C=CC[C@H]([C@H](O)[C@H](c2ccccc2)c2c(O)cc3c(c2O)C(=O)C[C@@H](c2ccccc2)O3)O1 | > 100 µM | > 100 µM | > 100 µM | > 100 µM | – | – | – | – | – | – | – |
| CN[C@@H]1[C@H](O[C@H]2[C@H](O[C@H]3[C@H](O)[C@@H](O)[C@H](N=C(N)N)[C@@H](O)[C@@H]3N=C(N)N)O[C@@H](C)[C@]2(O)C=O)O[C@@H](CO)[C@H](O)[C@H]1O [STREPTOMYCIN] | – | – | – | – | – | – | – | – | – | – | MIC (Staphylococcus aureus [4]): 32 µg/mL |
| O=c1[nH]cc(F)c(=O)[nH]1 [FLUOROURACIL] | – | – | – | – | – | – | – | – | – | – | IC50 (COLO 205): 32 µM; IC50 (LS-513): 84000 nM; IC50 (SW-620): 43 µM |
| O=C1C=CC[C@H]([C@@H](O)[C@H](c2ccccc2)c2c(O)cc3c(c2O)C(=O)C[C@@H](c2ccccc2)O3)O1 | 33 µM | > 100 µM | > 100 µM | > 100 µM | > 512 µg/mL | 16 µg/mL | 32 µg/mL | 0.28 | 4 | Active | IC50 (COLO 205): 2.8 µM; IC50 (LS-513): 1600 nM; IC50 (SW-620): 2.6 µM; MIC (Staphylococcus aureus [4]): 64 µg/mL; MIC (Staphylococcus aureus [5]): > 512 µg/mL; MIC (Staphylococcus aureus [7]): 16 µg/mL; MIC (Staphylococcus aureus [8]): 64 µg/mL; MIC (Staphylococcus aureus [10]): 8 µg/mL; MIC (Staphylococcus aureus [11]): 64 µg/mL; fractional inhibitory concentration index (FICI) (Staphylococcus aureus [13]): 0.37; fractional inhibitory concentration index (FICI) (Staphylococcus aureus [14]): 0.62 |
| CNC(=O)c1cc(Oc2ccc(NC(=O)Nc3ccc(Cl)c(C(F)(F)F)c3)cc2)ccn1 [SORAFENIB] | 9.2 µM | 15 µM | 14 µM | – | – | – | – | – | – | – | – |
